Values quoted from earlier work as cited in patent US7575768B2, “Dietary supplements and prepared foods containing triglyceride-recrystallized non-esterified phytosterols” (Brandeis University, priority 2005, dated 2009).

Test system: humans

For `CC[C@H](CC[C@@H](C)[C@H]1CC[C@H]2[C@@H]3CC=C4C[C@@H](O)CC[C@]4(C)[C@H]3CC[C@]12C)C(C)C` [beta sitosterol], which “lowering of serum cholesterol” value (12-18 g per day in divided doses, males with atherosclerosis) is on record?
Its value is 15-20%.

Which “decrease of plasma cholesterol level” value (9-18 grams per day, coarse powdered form) does the source give for `CC[C@H](CC[C@@H](C)[C@H]1CC[C@H]2[C@@H]3CC=C4C[C@@H](O)CC[C@]4(C)[C@H]3CC[C@]12C)C(C)C` [sitosterol] here?
The value was “approximately 15%”.
